US20120157434A1, “Antimicrobial heterocyclic compounds for treatment of bacterial infections” (CSO of MicuRx Pharmaceuticals, Inc., priority 2007, published 2012)
Values after ≈ are worked out from the molar mass of the structure shown. Where two headings read alike, the source gives them in different places.

Legend:
[1] = system: methicillin-resistant Staphylococcus aureus (MRSA); test: MIC by agar dilution against a clinical isolate of MRSA; assay type: cell-based
From the text: The in vitro activity of compounds of the subject invention may be assessed by standard testing procedures such as the determination of minimum inhibitory concentration (MIC) by agar dilution as described in “Approved Standard. Methods for Dilution Antimicrobial Susceptibility Tests for Bacteria that Grow Aerobically,” 3rd ed., published 1993 by the National Committee for Clinical Laboratory standards, Villanova, Pa., USA.
The in vitro MICs of test compounds may be determined by a standard agar dilution method. A stock drug solution of each analog is prepared in a preferred solvent, usually DMSO:H2O (1:3). Serial 2-fold dilutions of each sample are made using 1.0 ml aliquots of sterile distilled water. To each 1.0 ml aliquot of drug is added 9 ml of molten Mueller Hinton agar medium. The drug-supplemented agar is mixed, poured into 15×100 mm petri dishes, and allowed to solidify and dry prior to inoculation.
Vials of each of the test microorganisms are maintained frozen in the vapor phase of a liquid nitrogen freezer. Test cultures are grown overnight at 35° C. on the medium appropriate for the microorganism. Colonies are harvested with a sterile swab, and cell suspensions are prepared in Trypticase Soy broth (TSB) to equal the turbidity of a 0.5 McFarland standard. A 1:20 dilution of each suspension is made in TSB. The plates containing the drug supplemented agar are inoculated with a 0.001 ml drop of the cell suspension using a Steers replicator, yielding approximately 10^4 to 10^5 cells per spot. The plates are incubated overnight at 35° C.
Following incubation the Minimum Inhibitory Concentration (MIC μg/ml), the lowest concentration of drug that inhibits visible growth of the microorganism, is read and recorded.
Compounds of this invention can have useful activity against a variety of pathogenic microorganisms. The in vitro activity of compounds of this invention can be assessed by standard testing procedures such as the determination of minimum inhibitory concentration (MIC) by agar dilution as described in “Approved Standard. Methods for Dilution Antimicrobial Susceptibility Tests for Bacteria That Grow Aerobically”, 3rd. ed., published 1993 by the National Committee for Clinical Laboratory Standards, Villanova, Pa., USA. Minimum inhibitory concentration (MIC) refers to the lowest concentration of drug (μg/mL) that inhibits visible growth of the organism. Lower MIC values indicate a higher antibacterial activity. […] The activity of compounds of present invention against a clinical isolate of methicillin-resistant Staphylococcus aureus (MRSA; from the Massachusetts General Hospital, USA) is exemplified by the MIC data of Table 1.

[2] = molecular target: T1, Human monoamine oxidase (MOA) A type enzyme (Homo sapiens, UniProt P21397); test: MAO A inhibition, MAO-Glo assay kit (Promega); assay type: biochemical; conditions: luminogenic substrate; for IC50: read-out: MAO-I IC50, μg/mL (converted)
T1 sequence (P21397 1-527): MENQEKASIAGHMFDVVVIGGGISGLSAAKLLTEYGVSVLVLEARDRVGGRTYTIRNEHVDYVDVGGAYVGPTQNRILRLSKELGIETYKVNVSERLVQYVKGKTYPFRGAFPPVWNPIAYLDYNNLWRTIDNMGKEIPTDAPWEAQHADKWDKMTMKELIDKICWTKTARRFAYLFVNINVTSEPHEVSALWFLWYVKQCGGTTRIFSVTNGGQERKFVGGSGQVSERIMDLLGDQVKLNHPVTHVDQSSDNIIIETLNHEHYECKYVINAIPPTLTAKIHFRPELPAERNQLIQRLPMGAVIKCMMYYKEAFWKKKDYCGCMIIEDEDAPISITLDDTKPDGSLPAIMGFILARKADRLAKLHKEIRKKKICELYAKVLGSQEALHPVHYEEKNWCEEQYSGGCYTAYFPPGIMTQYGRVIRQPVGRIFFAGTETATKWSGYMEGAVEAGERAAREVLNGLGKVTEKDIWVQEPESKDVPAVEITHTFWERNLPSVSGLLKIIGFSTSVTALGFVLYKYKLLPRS
Method: Human monoamine oxidase (MOA) A type enzyme inhibition activity for select compounds was measured using a commercial MAO assay kit MAO-Glo™ from Promega Co. (USA). The assay was performed as described in the company's technical bulletin MAOGlo™ Assay”. The protocol involves an incubation of the MAO A enzyme with a luminogenic MAO substrate to produce an enzymatic product which is converted to luciferin by a coupled reaction. The released luciferin undergoes further transformation to generate light that is detected and measured. The amount of the light is directly proportional to the activity of MAO. Percent inhibition at several concentrations is established relative to the uninhibited control rate, and the IC50 values are calculated. […] The MAO inhibition data for select compound of this invention are illustrated in the Table 1.

[3] = Staphylococcus aureus, read-out: MRSA, MIC, μg/mL
[4] = clinical isolate of methicillin-resistant Staphylococcus aureus (Massachusetts General Hospital, USA), agar dilution, read-out: MRSA, MIC

Structure (SMILES)	MIC [1, 4]	IC50 [2]	MAO-I IC50 [2]	MIC [1, 3]
CC(=O)NC[C@@H]1OC(=O)N2c3ccc(-c4ccc(-c5nnn(C)n5)nc4)cc3C[C@@H]12 [Example 1, N-(((1S,9aS)-7-(6-(2-methyl-2H-tetrazol-5-yl)pyridin-3-yl)-3-oxo-1,3,9,9a-tetrahydrooxazolo[3,4-a]indol-1-yl)methyl)acetamide]	–	–	–	0.5 µg/mL (≈ 1.23 µM)
CC(=O)NC[C@@H]1OC(=O)N2c3ccc(-c4ccc(N5CCOC5=O)nc4)cc3C[C@@H]12 [Example 3, N-(((1S,9aS)-3-oxo-7-(6-(2-oxooxazolidin-3-yl)pyridin-3-yl)-1,3,9,9a-tetrahydrooxazolo[3,4-a]indol-1-yl)methyl)acetamide]	–	–	–	0.25 µg/mL (≈ 0.612 µM)
CC(=O)NC[C@@H]1OC(=O)N2c3ccc(-c4ccc(C5=NOC(CO)C5)nc4)cc3C[C@@H]12 (stereo partly drawn) [Example 8, N-(((1S,9aS)-7-(6-(5-(hydroxymethyl)-4,5-dihydroisoxazol-3-yl)pyridin-3-yl)-3-oxo-1,3,9,9a-tetrahydrooxazolo[3,4-a]indol-1-yl)methyl)acetamide]	–	–	–	1 µg/mL (≈ 2.37 µM)
CC(=O)NC[C@@H]1OC(=O)N2c3ccc(-c4ccc(C(=O)Cn5ccnc5)nc4)cc3C[C@@H]12 [Example 11, N-(((1S,9aS)-7-(6-(2-(1H-imidazol-1-yl)acetyl)pyridin-3-yl)-3-oxo-1,3,9,9a-tetrahydrooxazolo[3,4-a]indol-1-yl)methyl)acetamide]	–	> 232 µM	–	1 µg/mL (≈ 2.32 µM)

Second part, led by results:

MIC [1, 4]	IC50 [2]	MAO-I IC50 [2]	Structure (SMILES)	MIC [1, 3]
0.5 µg/mL (≈ 1.23 µM)	–	–	CC(=O)NC[C@@H]1OC(=O)N2c3ccc(-c4ccc(-c5nnnn5C)nc4)cc3C[C@@H]12 [Example 2, N-(((1S,9aS)-7-(6-(1-methyl-1H-tetrazol-5-yl)pyridin-3-yl)-3-oxo-1,3,9,9a-tetrahydrooxazolo[3,4-a]indol-1-yl)methyl)acetamide]	–
0.5 µg/mL (≈ 1.28 µM)	353 µM	–	CC(=O)NC[C@@H]1OC(=O)N2c3ccc(-c4ccc(-n5cnnn5)nc4)cc3C[C@@H]12 [Example 4, N-(((1S,9aS)-7-(6-(1H-tetrazol-1-yl)pyridin-3-yl)-3-oxo-1,3,9,9a-tetrahydrooxazolo[3,4-a]indol-1-yl)methyl)acetamide]	–
0.5 µg/mL (≈ 1.37 µM)	–	–	CC(=O)NC[C@@H]1OC(=O)N2c3ccc(N4Cc5cccnc5C4)cc3C[C@@H]12 [Example 6, N-(((1S,9aS)-3-oxo-7-(5H-pyrrolo[3,4-b]pyridin-6(7H)-yl)-1,3,9,9a-tetrahydrooxazolo[3,4-a]indol-1-yl)methyl)acetamide]	–
0.5 µg/mL (≈ 1.16 µM)	> 233 µM	–	CC(=O)NC[C@@H]1OC(=O)N2c3ccc(-c4ccc([C@@]5(C#N)[C@@H]6CNC[C@@H]65)nc4)cc3C[C@@H]12 [Example 18, N-(((1S,9aS)-7-(6-((1R,5S,6s)-6-cyano-3-azabicyclo[3.1.0]hexan-6-yl)pyridin-3-yl)-3-oxo-1,3,9,9a-tetrahydrooxazolo[3,4-a]indol-1-yl)methyl)acetamide]	–
2 µg/mL (≈ 5.93 µM)	–	5 µg/mL	CC(=O)NC[C@H]1CN(c2ccc(N3CCOCC3)c(F)c2)C(=O)O1 [Linezolid, linezolid, reference compound]	–
